Results published in ChEMBL document CHEMBL2380246, “Structure-activity relationships of hybrid annonaceous acetogenins: powerful growth inhibitory effects of their connecting groups between heterocycle and hydrophobic carbon chain bearing THF ring on human cancer cell lines” (2013).

Assays:
Assay type in all cases: functional
[1] = system: DU-145; assay: Growth inhibition of human DU145 cells after 48 hrs by sulforhodamine B assay; settings: DU-145, 48 h
[2] = system: SK-OV-3; assay: Growth inhibition of human SKOV3 cells after 48 hrs by sulforhodamine B assay; settings: SK-OV-3, 48 h
[3] = system: St-4; assay: Growth inhibition of human St-4 cells after 48 hrs by sulforhodamine B assay; settings: St-4, 48 h
[4] = system: LOX IMVI; assay: Growth inhibition of human LOXIMVI cells after 48 hrs by sulforhodamine B assay
[5] = Growth inhibition of human RXF631L cells after 48 hrs by sulforhodamine B assay; settings: RXF 631, 48 h
[6] = system: A549; assay: Growth inhibition of human A549 cells after 48 hrs by sulforhodamine B assay; settings: A549, 48 h
[7] = Growth inhibition of human HCC2998 cells after 48 hrs by sulforhodamine B assay; settings: HCC 2998, 48 h
[8] = system: DMS-273; assay: Growth inhibition of human DMS273 cells after 48 hrs by sulforhodamine B assay; settings: DMS-273, 48 h
[9] = system: HT-29; assay: Growth inhibition of human HT-29 cells after 48 hrs by sulforhodamine B assay; settings: HT-29, 48 h
[10] = Growth inhibition of human MKN1 cells after 48 hrs by sulforhodamine B assay; settings: MKN-1, 48 h
[11] = system: OVCAR-5; assay: Growth inhibition of human OVCAR5 cells after 48 hrs by sulforhodamine B assay; settings: OVCAR-5, 48 h
[12] = system: MKN-74; assay: Growth inhibition of human MKN74 cells after 48 hrs by sulforhodamine B assay; settings: MKN-74, 48 h
[13] = system: HCT-116; assay: Growth inhibition of human HCT116 cells after 48 hrs by sulforhodamine B assay; settings: HCT-116, 48 h
[14] = system: MDA-MB-231; assay: Growth inhibition of human MDA-MB-231 cells after 48 hrs by sulforhodamine B assay; settings: MDA-MB-231, 48 h
[15] = system: OVCAR-4; assay: Growth inhibition of human OVCAR4 cells after 48 hrs by sulforhodamine B assay; settings: OVCAR-4, 48 h
[16] = system: KM12; assay: Growth inhibition of human KM12 cells after 48 hrs by sulforhodamine B assay; settings: KM12, 48 h
[17] = system: PC-3; assay: Growth inhibition of human PC3 cells after 48 hrs by sulforhodamine B assay; settings: PC-3, 48 h
[18] = Growth inhibition of human HBC4 cells after 48 hrs by sulforhodamine B assay; settings: HBC4, 48 h
[19] = system: HCT-15; assay: Growth inhibition of human HCT15 cells after 48 hrs by sulforhodamine B assay; settings: HCT-15, 48 h
[20] = Growth inhibition of human HBC5 cells after 48 hrs by sulforhodamine B assay; settings: HBC5, 48 h
[21] = system: OVCAR-8; assay: Growth inhibition of human OVCAR8 cells after 48 hrs by sulforhodamine B assay; settings: OVCAR-8, 48 h
[22] = system: SF-295; assay: Growth inhibition of human SF295 cells after 48 hrs by sulforhodamine B assay; settings: SF-295, 48 h
[23] = system: ACHN; assay: Growth inhibition of human ACHN cells after 48 hrs by sulforhodamine B assay
[24] = system: SNB-75; assay: Growth inhibition of human SNB75 cells after 48 hrs by sulforhodamine B assay; settings: SNB-75, 48 h
[25] = system: OVCAR-3; assay: Growth inhibition of human OVCAR3 cells after 48 hrs by sulforhodamine B assay; settings: OVCAR-3, 48 h
[26] = system: SF-268; assay: Growth inhibition of human SF268 cells after 48 hrs by sulforhodamine B assay; settings: SF-268, 48 h
[27] = system: MKN-45; assay: Growth inhibition of human MKN45 cells after 48 hrs by sulforhodamine B assay; settings: MKN-45, 48 h
[28] = system: DMS-114; assay: Growth inhibition of human DMS114 cells after 48 hrs by sulforhodamine B assay; settings: DMS-114, 48 h
[29] = system: NCI-H460; assay: Growth inhibition of human NCI-H460 cells after 48 hrs by sulforhodamine B assay; settings: NCI-H460, 48 h
[30] = system: NCI-H226; assay: Growth inhibition of human NCI-H226 cells after 48 hrs by sulforhodamine B assay; settings: NCI-H226, 48 h
[31] = system: U-251; assay: Growth inhibition of human U251 cells after 48 hrs by sulforhodamine B assay; settings: U-251, 48 h
[32] = system: SNB-78; assay: Growth inhibition of human SNB78 cells after 48 hrs by sulforhodamine B assay; settings: SNB-78, 48 h
[33] = Growth inhibition of human BSY1 cells after 48 hrs by sulforhodamine B assay; settings: BSY-1, 48 h
[34] = system: SF-539; assay: Growth inhibition of human SF539 cells after 48 hrs by sulforhodamine B assay; settings: SF-539, 48 h
[35] = system: NCI-H23; assay: Growth inhibition of human NCI-H23 cells after 48 hrs by sulforhodamine B assay; settings: NCI-H23, 48 h
[36] = system: MKN-28; assay: Growth inhibition of human MKN28 cells after 48 hrs by sulforhodamine B assay; settings: MKN-28, 48 h
[37] = system: MCF7; assay: Growth inhibition of human MCF7 cells after 48 hrs by sulforhodamine B assay; settings: MCF7, 48 h
[38] = system: MKN-7; assay: Growth inhibition of human MKN7 cells after 48 hrs by sulforhodamine B assay; settings: MKN-7, 48 h
[39] = system: NCI-H522; assay: Growth inhibition of human NCI-H522 cells after 48 hrs by sulforhodamine B assay; settings: NCI-H522, 48 h

Row | Compound | GI50 [1] | GI50 [2] | GI50 [3] | GI50 [4] | GI50 [5] | GI50 [6] | GI50 [7] | GI50 [8] | GI50 [9] | GI50 [10] | GI50 [11] | GI50 [12] | GI50 [13] | GI50 [14] | GI50 [15] | GI50 [16] | GI50 [17] | GI50 [18] | GI50 [19] | GI50 [20] | also measured
1 | CCCCCCCCCCCC[C@@H](O)[C@H]1CC[C@H]([C@H](O)CCCCCCCCCCCCC2=C[C@H](C)OC2=O)O1 [REL-SOLAMIN] | > 100 µM | > 100 µM | > 100 µM | 28.8 µM | > 100 µM | > 100 µM | > 100 µM | > 100 µM | > 100 µM | > 100 µM | > 100 µM | > 100 µM | > 100 µM | > 100 µM | > 100 µM | > 100 µM | > 100 µM | > 100 µM | > 100 µM | > 100 µM | GI50 [21]: > 100 µM; GI50 [22]: 39.8 µM; GI50 [23]: > 100 µM; GI50 [24]: > 100 µM; GI50 [25]: > 100 µM; GI50 [26]: > 100 µM; GI50 [27]: > 100 µM; GI50 [28]: 4.27 µM; GI50 [29]: > 100 µM; GI50 [30]: > 100 µM; GI50 [31]: > 100 µM; GI50 [32]: > 100 µM; GI50 [33]: > 100 µM; GI50 [34]: > 100 µM
2 | CCCCCCCCCCCC[C@@H](O)[C@H]1CC[C@H]([C@H](O)CCCCCCCCCCC(=O)Nc2ccnn2C)O1 | > 100 µM | > 100 µM | > 100 µM | > 100 µM | > 100 µM | > 100 µM | > 100 µM | > 100 µM | > 100 µM | > 100 µM | > 100 µM | > 100 µM | 64.6 µM | > 100 µM | > 100 µM | > 100 µM | > 100 µM | > 100 µM | > 100 µM | > 100 µM | GI50 [35]: 26.9 µM; GI50 [21]: > 100 µM; GI50 [22]: 57.5 µM; GI50 [23]: > 100 µM; GI50 [24]: > 100 µM; GI50 [25]: > 100 µM; GI50 [26]: > 100 µM; GI50 [27]: > 100 µM; GI50 [28]: 3.31 µM; GI50 [29]: > 100 µM; GI50 [30]: 75.9 µM; GI50 [36]: 18.2 µM; GI50 [37]: > 100 µM; GI50 [31]: > 100 µM; GI50 [38]: 20.9 µM; GI50 [32]: > 100 µM; GI50 [39]: 28.8 µM; GI50 [33]: 95.5 µM; GI50 [34]: > 100 µM
